We go through two molecules from publication PMC6368365, “Didehydro-Cortistatin A Inhibits HIV-1 by Specifically Binding to the Unstructured Basic Region of Tat” (mBio, 2019).

The structures appear in SMILES notation.

The target of one assay is T1, intracellular Tat (Human immunodeficiency virus type 1 group M subtype B, UniProt P69697).
T1 construct: pTatC6H-1 (NIH AIDS Reagent Program) plasmid encoding C-terminal 6xHistidine Tat1-86 (HXB3, subtype B); made in house; host or cells: E. coli BL21 (plasmid pTatC6H-1, NIH AIDS Reagent Program)
T1 sequence (P69697 whole entry): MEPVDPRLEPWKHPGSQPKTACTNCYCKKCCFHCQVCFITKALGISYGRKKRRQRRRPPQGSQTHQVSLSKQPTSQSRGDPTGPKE
Kind of assay: Steady state of recombinant Tat in HeLa-CD4-LTR-Luc cells (Western blot). It is filed as cell-based, HIV-1. The settings on record: 6 hours with compound, MG132 10 μM. How it is done: FIG 5 dCA stabilizes Tat structure. (A) Trp fluorescence assays. (Left) Schematic of the assay. (Center) DMSO, dCA (7.5× Tat concentration) or raltegravir (Ralt.; 7.5× Tat concentration) was incubated with Tat. The fluorescence of the Trp^11 of Tat protein was measured at the indicated wavelengths. Acrylamide (250 mM) was used as a quenching control of Tat fluorescence. (Right) Peak absorbance (λmax) versus increasing fold ratios of compounds to Tat protein. Data are representative of n = 3 independent experiments. (B) DARTS assays. Tat was incubated with DMSO or dCA, at increasing concentrations, in the presence of increasing concentrations of proteinase K (PK). […] Data are representative of n = 2 independent experiments. (C) Steady state of Tat in the presence of dCA in vivo. HeLa-CD4-LTR-Luc cells were incubated with recombinant Tat and then washed and incubated with the indicated compounds for 6 hours. […] (Left) Western blot representative of n = 4 independent experiments. MG132 was used as a positive control of Tat protection from degradation, and raltegravir was used as a negative control. (Right) Densitometry of the Tat band normalized to the actin band. Results represent the mean ± SEM from n = 4 independent experiments. Statistical significance was determined using one-way ANOVA with post hoc Tukey’s test. ns, not significant; ***, P < 0.0001; **, P < 0.001.
Next, we determined the half-life of recombinant Tat in HeLa-CD4-LTR-Luc cells in the presence of dCA (Fig. 5C). We incubated recombinant Tat with cells for 4 hours, and after several washes to remove extracellular Tat protein, we incubated cells with DMSO, dCA, or raltegravir for an additional 6 hours. Western blotting with anti-His antibody was performed to reveal intracellular Tat. […]
Half-life of Tat in vivo. […] Total protein concentration was assessed by Bradford assay and Tat protein in each condition determined by western blot with an anti-His antibody at 1:1500 dilution (Thermofisher). […]
A general note: Immunoblotting shows a protein as a band on a membrane.

Another assay deals with Tat-TAR interaction (Human immunodeficiency virus type 1 group M subtype B, UniProt P69697). Kind of assay: EMSA of full-length Tat with TAR. It is filed as biochemical, HIV-1. Details: pTatC6H-1 (NIH AIDS Reagent Program) plasmid encoding C-terminal 6xHistidine Tat1-86 (HXB3, subtype B); made in house; host or cells: E. coli BL21 (plasmid pTatC6H-1, NIH AIDS Reagent Program). The settings on record: radiolabeled TAR. From the text:
Tat amplifies viral mRNA expression by binding through its basic domain to TAR, the 5′-terminal region stem-bulge-loop structure of HIV mRNAs, and recruits several cofactors to the viral promoter to promote transcriptional elongation. We investigated whether dCA could compete with TAR for Tat binding. For this purpose, we performed EMSA with radiolabeled TAR and recombinant Tat in the presence or absence of dCA (Fig. 6A).
EMSA with full-length Tat, a protocol similar to that of Das et al. was performed ([60]). Details on the EMSA with Tat’s basic peptide are provided in Text S1.
EMSA With full-length Tat: similar protocol was performed as in Das et al. (60). With Tat’s basic peptide: the 59-nucleotides TAR RNA was prepared by in vitro T7 RNA polymerase transcription according to Maxiscript kit manufacturer’s instructions (Ambion). The radiolabeled RNA was purified by urea gel followed by phenol-chloroform extraction. Binding reaction mixture (25 µL of 10 mM Tris HCL pH 7.5, NaCl 70 mM, EDTA 0.2 mM, NP40 0.01 %, Glycerol 5 % and tRNA 100 ng/µL) contained traces of radiolabeled TAR RNA and basic peptide (Pep B, residues 45-59) (or peptide C “Pep C”, residues 69-83, as negative control) in combination or not with compounds or cold TAR. The mixture was incubated for 10 min at room temperature (RT). […]

Sequence of Tat-TAR interaction (P69697 whole entry, the tested form may be a part): as the sequence (P69697 whole entry) above

As for `CN(C)C1CC23CCC4(O2)C(=CCC2(C)C(c5ccc6ccncc6c5)=CCC24)C=C3C(O)C1O` (stereo not shown) [dCA, didehydro-cortistatin A], the “percentage of remaining Tat” value at intracellular Tat came out at 40%. For the same molecule, the “inhibition of Tat-TAR interaction (EMSA)” value on Tat-TAR interaction is on record as “inhibited the interaction of Tat with TAR in a dose-responsive manner”.

As for `Cc1nnc(C(=O)NC(C)(C)c2nc(C(=O)NCc3ccc(F)cc3)c(O)c(=O)n2C)o1` [raltegravir, reference compound], the “percentage of remaining Tat” value at intracellular Tat was 28%. Besides, the “inhibition of Tat-TAR interaction (EMSA)” value at Tat-TAR interaction is recorded as “no inhibitory activity”.
